Patent US7326542B2, “Compositions and methods for regulating bacterial pathogenesis” (priority 1998, dated 2008)
Read-outs that look alike come from different tables or passages of the source.

How the values were obtained:
[1] = system: V. harveyi reporter strain BB170 (Sensor 1-, Sensor 2+); type: cell-based, Vibrio harveyi
Protocol: Cell-free culture fluids from E. coli, S. typhimurium and V. harveyi strains were tested for the presence of signaling substances that could induce luminescence in the V. harveyi reporter strain BB170 or BB886. […] The microtiter dishes were shaken in a rotary shaker at 175 rpm at 30° C.
The cell density was measured by diluting the same aliquots of cells used for measuring luminescence, spreading the dilutions onto solid LM medium, incubating the plates overnight at 30° C., and counting the resulting colonies the following day. […] Cell-free culture supernatants from V. harveyi or S. typhimurium strains were added to a final concentration of 10% (v/v) at the time of the first measurement. In control experiments, 10% (v/v) of AB medium, LB medium or LB medium containing 0.5% glucose was added instead of cell-free culture fluids.

[2] = system: V. harveyi luxN, luxS double mutant reporter strain; experiment: V. harveyi luxN, luxS double mutant reporter strain luminescence assay; type: cell-based, Vibrio harveyi; details: AI-1 from MM30 and AI-2 from BB152 culture fluids
Protocol: Verification that the luxN, luxS Double Mutant Responds to AI-2. […] This was verified in a luminescence assay for response to V. harveyi AI-1 and AI-2. V. harveyi strain MM30 (luxS::Tn5) which is phenotypically AI-1^+, AI-2^−, and V. harveyi strain BB152 (luxM::Tn5) which is phenotypically AI-1^−, AI-2^+ were used as the sources of AI-1 and AI-2 respectively. The AI-1 and AI-2 present in culture fluids of these strains was tested for stimulation of light production of the V. harveyi luxN, luxS double mutant reporter strain. In this assay, autoinducer preparations from MM30, BB152 or sterile medium controls were added to the wells of microtiter plates, followed by the addition of the V. harveyi reporter strain. The resulting light production was monitored using a liquid scintillation counter in the chemiluminescence mode. Maximal stimulation of light production in the V. harveyi luxN, luxS reporter strain was compared to that produced by the Sensor 1^+, Sensor 2^− V. harveyi strain BB886 and the Sensor 1^−, Sensor 2^+ V. harveyi strain BB170. These two V. harveyi strains are routinely used in this assay as reporters of AI-1 and AI-2 activity respectively.

[3] = system: V. harveyi reporter strain BB886 (Sensor 1+, Sensor 2-); experiment: V. harveyi BB886 luminescence bioassay (AI-1 / Signaling System 1); type: cell-based, Vibrio harveyi; details: non self-stimulating sensor-1+, sensor-2- mutant (BB886)
Protocol: Assay for production of signaling compounds. Cell-free culture fluids from E. coli, S. typhimurium and V. harveyi strains were tested for the presence of signaling substances that could induce luminescence in the V. harveyi reporter strain BB170 or BB886. In the assays, 10 1 of cell-free culture fluids from E. coli AB1157, E. coli DH5, and S. typhimurium LT2 strains grown and harvested as described above were added to 96-well microtiter dishes. The V. harveyi reporter strain BB170 or BB886 was grown for 16 h at 30° C. with aeration in AB medium, diluted 1:5000 into fresh AB medium, and 90 1 of the diluted cells were added to the wells containing the E. coli and S. typhimurium cell-free culture fluids. Positive control wells contained 10 1 of cell-free culture fluid from strain V. harveyi BB152 (Autoinducer-1^−, Autoinducer-2^+) or V. harveyi BB 120 (Autoinducer-1^+, Autoinducer-2^+). Negative control wells contained 10 1 of sterile growth medium. […] Every hour, light production was measured using a Wallac Model 1450 Microbeta Plus liquid scintillation counter in the chemiluminescence mode. The V. harveyi cell density was measured by diluting the same aliquots of cells used for measuring luminescence, spreading the dilutions onto solid LM medium (Bassler et al., 1993, supra), incubating the plates overnight at 30C., and counting the resulting colonies the following day. […]

[4] = system: rck::MudJ fusion in S. typhimurium (sdiA+ and sdiA-); experiment: SdiA regulated rck::MudJ fusion, galactosidase; type: cell-based; details: addition of AI-2 from E. coli or S. typhimurium, 2 h
Protocol: For ftsQ regulation in E. coli, the plasmids pMS207 and pMS209 were transformed into E. coli strain MC4100 (Silhavy et al., 1984, supra), and the transformants were grown overnight in LB containing 100 mg/L ampicillin at 30° C. with aeration. For rck regulation, S. typhimurium strains BA1105 (rck::MudJ) and BA1305 (rck::MudJ sdiA) were grown overnight in LB containing 100 mg/L kanamycin at 30° C. with aeration. The overnight cultures were diluted 20-fold into fresh medium and grown for an additional 4.5 h. At this time, each culture was divided into five identical aliquots and 10% (v/v) of one of the following was added to each aliquot: LB, 0.4 M NaCl, […] osmotic shock fluids from S. typhimurium LT2, E. coli 0157 or E. coli strain DH5 (negative control). The osmotic shock fluids were prepared as described above, following pre-growth of the S. typhimurium LT2 and E. coli in LB containing 0.5% glucose for 6 h. The cell suspensions were incubated at 30° C. for 2 h, after which standard-galactosidase reactions were performed on the samples (Miller, A Short Course in Bacterial Genetics, Cold Spring Harbor Laboratory Press, 1992).

[5] = Stability of the signaling activity (acid, base, heat, storage); type: physicochemical
[6] = system: ftsQ1p2p-lacZ fusion in E. coli MC4100/pMS207; experiment: SdiA regulated ftsQ1p2p-lacZ reporter, galactosidase; type: cell-based; details: 10% (v/v) 0.4 M NaCl osmotic shock fluids containing AI-2 activity, 2 h
Description: Analysis of the effect of autoinducer on SdiA regulated gene expression. A sequence that includes the ftsQ1p and ftsQ2p promoters (Wang et al., 1991, supra) was amplified from E. coli MG1655 chromosomal DNA using the following primers: ftsQ1p, 5′-[…]-3′ (SEQ ID NO: 19); ftsQ2p, 5′-[…]-3′ (SEQ ID NO: 20). The amplified product contained both the ftsQ promoters and the first 14 codons of the ftsQ gene flanked by BamHI and Bg1II sites. The ftsQ1p2p PCR product was cloned into the BamHI site of vector pMLB 1034 (Silhavy et al., Experiments with Gene Fusions, Cold Spring Harbor Press, 1984) to generate a lacZ fusion that contained the promoters, ribosome binding site, and initiation codon of ftsQ. A correctly oriented clone, pMS207, and a clone containing the ftsQ1p2p insert in the opposite orientation, pMS209, were chosen for further analysis. Both inserts were sequenced to ensure that no errors were introduced during the PCR reaction.
For ftsQ regulation in E. coli, the plasmids pMS207 and pMS209 were transformed into E. coli strain MC4100 (Silhavy et al., 1984, supra), and the transformants were grown overnight in LB containing 100 mg/L ampicillin at 30° C. with aeration. For rck regulation, S. typhimurium strains BA1105 (rck::MudJ) and BA1305 (rck::MudJ sdiA) were grown overnight in LB containing 100 mg/L kanamycin at 30° C. with aeration. […]

O=C(O)CCC(=O)C(=O)O [-ketoglutarate]
activity of candidates for the signal in inducing luminescence [1]: None of these compounds has activity

C[C@@H](O)CC(=O)N[C@H]1CCOC1=O [AI-1, N-(3-hydroxybutanoyl)-L-homoserine lactone, reference compound]
light production in response to exogenous autoinducer [2]: not
lowest concentration the assay was sensitive to [3]: 100 nM

CC(=O)C(=O)C(O)CO (stereo not drawn) [AI-2, 4,5-dihydroxy-2,3-pentanedione]
light production in response to exogenous autoinducer [2]: stimulated to produce light
stimulation in light production by AI-2 produced in vitro ([1]; dialyzed LuxS- cell extract + SAM + LuxS protein, 60 min, material with MW<5000): over 500 fold
change in galactosidase production of rck::MudJ [4]: No change
acid and base stability of the activity [5]: acid stable and base labile
heat resistance of the activity [5]: heat resistant to about 80 but not 100 °C
acid and base stability of the activity ([5]; listed as signaling activity): acid stabile and base labile
heat resistance of the activity ([5]; listed as signaling activity): heat resistant to 80 but not 100 °C
acid and base stability of the activity ([5]; listed as signaling compound): acid stable and base labile
heat resistance of the activity ([5]; listed as signaling compound): heat resistant to 80 °C but not 100 °C
change of galactosidase activity of ftsQ1p2p-lacZ fusion [6]: did not change

CC(=O)O [acetate]
activity of candidates for the signal in inducing luminescence [1]: None of these compounds has activity

N[C@H]1CCOC1=O [homoserine lactone]
activity of candidates for the signal in inducing luminescence [1]: None of these compounds has activity
